In patent US12268694B2, “Combination pharmaceutical agents as RSV inhibitors” (Enanta Pharmaceuticals, Inc., priority 2017, dated 2025) one finds EC50 data, which are given here for 55 compounds.

Molecules are shown by their SMILES. Where only a bound is given, the exact number is not on record here.

The subject of the first experiment is genotype A, "Long" strain RSV. The experiment can be described thus: RSV-A assay: CPE protection in HEp-2 cells, ATPlite readout. The following applies: HEp-2 cells, RSV-A Long strain, ATPlite readout; read-out: Human RSV-A (“Long” strain) EC50. The experiment is classed as cell-based, human respiratory syncytial virus. The source says:
HEp-2 cells, (originally derived from tumors grown in irradiated-cortisonised weanling rats that had been injected with epidermoid carcinoma tissue from a person's larynx, but later found to be indistinguishable from HeLa cells by PCR DNA analysis), were used for the culturing of genotype A, “Long” strain RSV. Flasks were inoculated with RSV and viral stocks were collected once cytopathic effect (CPE) was greater than 90%. Viral stocks in 25% sucrose media were snap frozen using liquid nitrogen to increase viral stability. Viral stock titers were quantified by tissue culture infectious dose 50% (TCID50) using 8,000 cells per well and 3-fold viral dilutions across a 96-well plate, cultured for 4 days. Viral stock titers were also quantified by a plaque forming unit assay, as described elsewhere.
Following extensive parameter testing, the final assay is run as follows: HEp-2 cells are seeded into the inner 60 wells of a 96-well plate at 8,000 cells per well in a volume of 50 μL using Growth Media (DMEM without phenol red, 1% L-Glut, 1% Penn/Strep, 1% nonessential amino acids, 10% heat-inactivated FBS). 2-fold serial dilutions of control and test compounds are added to the wells in duplicate in a total volume of 25 μL. Viral stock is then added to the wells at a multiplicity of infection (MOI) of 0.1 in a volume of 25 μL, bringing the total volume of each well to 100 μL. The MOI is calculated using the PFU/mL, or TCID50 if unavailable. Each 96-well plate has a control column of 6 wells with cells and virus but no compound (negative control, max CPE), a column with cells but no compound or virus (positive control, minimum CPE), and a column with no cells or virus or compound (background plate/reagent control). The control wells with cells but no virus are given an additional 25 μL of growth media containing an equal quantity of sucrose as those wells receiving the viral stock in order to keep consistent in media and volume conditions. The outer wells of the plate are filled with 125 μL of moat media (DMEM, 1% Penn/Strep) to act as a thermal and evaporative moat around the test wells. Following a 5-day incubation period, the plates are read using ATPlite (50 μL added per well), which quantifies the amount of ATP (a measure of cell health) present in each well. Assay plates are read using the Envision luminometer. In parallel, cytotoxicity is examined on an additional 96-well plate treated in an identical manner, but substituting the 25 μL of viral stock for 25 μL of growth media. […] EC50 ranges are as follows: A <0.4 μM; B 0.4-0.8 μM; C >0.8 μM and CC50 ranges are as follows: A >50 μM; B 10-50 μM; C <10 μM.
(In general: In ATP-based viability assays light output follows the ATP content of the culture.)
As a reminder, the EC50 is the concentration giving half of the maximal effect. Take `O=C1Nc2ccccc2C(c2ccccc2)=NC1Nc1nnc(-c2ccc(F)nc2N2CCOCC2)o1` (stereo not shown) [Example 150]: the half-maximal effective concentration (EC50) was under 0.4 µM.

As to `O=C1Nc2ccccc2C(c2ccccc2)=NC1Nc1nnc(-c2c(F)cc(F)cc2N2CCOCC2)o1` (stereo not shown) [Example 170], the EC50 is over 0.8 µM.

In the case of `O=C1Nc2ccccc2C(c2ccccc2)=N[C@@H]1Nc1nnc(-c2nc(C(F)(F)F)sc2N2CCO[C@H]3C[C@H]32)o1` [Example 485], the concentration for a half-maximal effect (EC50) was over 0.8 µM.

Turning to `O=C1Nc2ccccc2C(c2ccccc2)=N[C@@H]1Nc1nnc(-c2cn(-c3ccc(C(F)(F)F)nc3)nc2N2CCOCC2)o1` [Example 444], the EC50 is under 0.4 µM.

The experiment is the same for the next values; noted with them: human respiratory syncytial virus, HEp-2, read-out: Human RSV-A (“Long” strain) EC50.
For `C[C@@H]1COCCN1c1cc(C(F)(F)F)cnc1-c1nnc(N[C@H]2N=C(c3ccccc3)c3ccccc3NC2=O)o1` [Example 294], the concentration giving a half-maximal response (EC50) was under 0.4 µM.

Turning to `O=C1Nc2ccccc2C(c2ccccc2)=N[C@@H]1Nc1nnc(-c2sc3ncccc3c2N2CCOCC2)o1` [Example 180], the half-maximal effective concentration (EC50) was under 0.4 µM.

As to `CN1C(=O)C(Nc2nnc(-c3ccc(F)cc3)o2)N=C(c2ccccc2)c2ccccc21` (stereo not shown) [Example 201], the EC50 was over 0.8 µM.

For `O=C1Nc2ccccc2C(c2ccccc2)=NC1Nc1nnc(-c2cccnc2N2C[C@@H]3C[C@H]2CO3)o1` (stereo partly shown) [Example 248], the EC50 was over 0.8 µM.

As for `O=C1Nc2ccccc2C(c2ccccc2)=NC1Nc1nnc(-c2cccnc2N2C[C@H]3C[C@@H]2CO3)o1` (stereo partly shown) [Example 264], the 50% effective concentration (EC50) was over 0.8 µM.

On to `COc1ccccc1-c1nc(-c2nnc(N[C@H]3N=C(c4ccccc4)c4ccccc4NC3=O)o2)c(N2CCOCC2)s1` [Example 342], for which the EC50 is under 0.4 µM.

Regarding `Cc1nc(-c2nnc(N[C@H]3N=C(c4ccccc4)c4ccccc4NC3=O)o2)c(N2CCOCC2)o1` [Example 337], the EC50 was under 0.4 µM.

`O=C1Nc2ccccc2C(c2ccccc2)=N[C@@H]1Nc1nnc(-c2ncc3ccccc3c2N2CCOCC2)o1` [Example 316]: the EC50 is over 0.8 µM.

Turning to `O=C1Nc2ccccc2C(c2ccccc2)=N[C@@H]1Nc1nnc(-c2ncc(C3=CCCCC3)cc2N2CCOCC2)o1` [Example 312], the EC50 lay within 0.4 to 0.8 µM.

Regarding `O=C1Nc2ccccc2C(c2ccccc2)=NC1Nc1nnc(-c2ccc(-n3cncn3)nc2)o1` (stereo not shown) [Example 225], the EC50 was over 0.8 µM.

On to `O=C1Nc2c(F)cccc2C(c2ccccc2)=NC1Nc1nnc(-c2ccc(N3CCOCC3)cc2)o1` (stereo not shown) [Example 356], for which the EC50 is 0.4 to 0.8 µM.

Consider `N#CCNc1cc(C(F)(F)F)cnc1-c1nnc(N[C@H]2N=C(c3ccccc3)c3ccccc3NC2=O)o1` [Example 331], for which the 50% effective concentration (EC50) was over 0.8 µM.

On to `COCCN(C)c1ccc(-c2nnc(NC3N=C(c4ccccc4)c4ccccc4NC3=O)o2)cc1` (stereo not shown) [Example 118], for which the half-maximal effective concentration (EC50) was over 0.8 µM.

In the case of `O=C1Nc2ccccc2C(c2ccccc2)=NC1Nc1nnc(-c2cccc(F)c2N2CCOCC2)o1` (stereo not shown) [Example 148], the EC50 was over 0.8 µM.

Take `COCCN1CCCn2ncc(-c3nnc(N[C@H]4N=C(c5ccccc5)c5ccccc5NC4=O)o3)c21` [Example 438]: the half-maximal effective concentration (EC50) lay within 0.4 to 0.8 µM.

For the compound `O=C1Nc2ccccc2C(c2ccccc2)=NC1Nc1ncc(-c2ccccc2)cn1` (stereo not shown) [Example 371], the 50% effective concentration (EC50) is over 0.8 µM.

In the case of `CC1(c2nnc(NC3N=C(c4ccccc4)c4ccccc4NC3=O)o2)CCNC1` (stereo not shown) [Example 223], the concentration for a half-maximal effect (EC50) was over 0.8 µM.

Consider `O=C1Nc2ccccc2C(c2ccccc2)=N[C@@H]1Nc1nnc(-c2nc(C(F)(F)F)sc2N[C@@H]2CCOC2)o1` [Example 474], for which the EC50 is under 0.4 µM.

Take `O=C1Nc2ccccc2C(c2ccccc2)=N[C@@H]1Nc1nnc(-c2cn(-c3cccnc3)nc2N2CCOCC2)o1` [Example 425]: the concentration for a half-maximal effect (EC50) was under 0.4 µM.

For the compound `O=C1Nc2ccccc2C(c2ccccc2)=NC1Nc1nnc(-c2ccccc2N2CCOCC2)[nH]1` (stereo not shown) [Example 367], the EC50 was over 0.8 µM.

In the case of `COC1C2CN(c3cc(C(F)(F)F)cnc3-c3nnc(N[C@H]4N=C(c5ccccc5)c5ccccc5NC4=O)o3)CC21` (stereo partly shown) [Example 439], the concentration giving a half-maximal response (EC50) was over 0.8 µM.

For `COCc1ccn2ncc(-c3nnc(N[C@H]4N=C(c5ccccc5)c5ccccc5NC4=O)o3)c2c1` [Example 449], the EC50 was over 0.8 µM.

Take `O=C1Nc2ccccc2C(c2ccccc2)=NC1Nc1nnc(CC(F)(F)F)o1` (stereo not shown) [Example 203]: the EC50 is over 0.8 µM.

Take `O=C1Nc2ccccc2C(c2ccccc2)=N[C@@H]1Nc1nnc(-c2ncc(C(F)(F)F)cc2N[C@@H]2CCC[C@@H]2O)o1` [Example 423]: the EC50 is 0.4 to 0.8 µM.

Take `O=C1Nc2ccccc2C(c2ccccc2)=N[C@@H]1Nc1nnc(-c2cn(C3CCC3)nc2N2CCOCC2)o1` [Example 430]: the EC50 was under 0.4 µM.

`N#Cc1ccc(-c2nnc(NC3N=C(c4ccccc4)c4ccccc4NC3=O)o2)s1` (stereo not shown) [Example 183]: the EC50 is under 0.4 µM.

On to `Cc1ccc(-c2nnc(N[C@H]3N=C(c4ccccc4)c4ccccc4NC3=O)o2)c(N2C3CCC2COC3)n1` [Example 280], for which the EC50 is under 0.4 µM.

Take `N#Cc1ccc(N2CCOCC2)c(-c2nnc(N[C@H]3N=C(c4ccccc4)c4ccccc4NC3=O)o2)n1` [Example 324]: the EC50 was under 0.4 µM.

As for `O=C1Nc2ccccc2C(c2ccccc2)=NC1Nc1nnc(-c2ccc(N3CCOCC3)cc2C(F)(F)F)o1` (stereo not shown) [Example 147], the EC50 was over 0.8 µM.

On to `CC(C)(C)c1nnc(NC2N=C(c3ccccc3)c3ccccc3NC2=O)o1` (stereo not shown) [Example 189], for which the EC50 is over 0.8 µM.

On to `C#Cc1cnc(-c2nnc(N[C@H]3N=C(c4ccccc4)c4ccccc4NC3=O)o2)c(N2CCOCC2)c1` [Example 311], for which the 50% effective concentration (EC50) was under 0.4 µM.

Turning to `Cc1cc(-c2nnc(N[C@H]3N=C(c4ccccc4)c4ccccc4NC3=O)o2)c(N2CCOCC2)s1` [Example 330], the 50% effective concentration (EC50) was under 0.4 µM.

As to `COCCOc1ccccc1-c1nnc(NC2N=C(c3ccccc3)c3ccccc3NC2=O)o1` (stereo not shown) [Example 229], the concentration for a half-maximal effect (EC50) is over 0.8 µM.

As for `N#CC1CCN(c2ncccc2-c2nnc(NC3N=C(c4ccccc4)c4ccccc4NC3=O)o2)CC1` (stereo not shown) [Example 260], the EC50 is over 0.8 µM.

For `N#Cc1ccc(-c2nnc(N[C@H]3N=C(c4ccccc4)c4ccccc4NC3=O)o2)c(-c2ccsc2)c1` [Example 309], the EC50 was over 0.8 µM.

Regarding `O=C1Nc2ccccc2C(c2ccccc2)=NC1Nc1nnc(-c2ncc(N3CCOCC3)cc2Cl)o1` (stereo not shown) [Example 135], the EC50 was over 0.8 µM.

Regarding `CO[C@@H](C)CNc1sc(C(F)(F)F)nc1-c1nnc(N[C@H]2N=C(c3ccccc3)c3ccccc3NC2=O)o1` [Example 452], the half-maximal effective concentration (EC50) is under 0.4 µM.

`O=C1Nc2ccccc2C(c2ccccc2)=NC1Nc1nnc(-c2ncc(C(F)F)cc2N2CCOCC2)o1` (stereo not shown) [Example 461]: the EC50 was under 0.4 µM.

As for `O=C1Nc2ccccc2C(c2ccccc2)=NC1Nc1nnc(-c2cc(F)ccc2N2CCOCC2)o1` (stereo not shown) [Example 119], the EC50 was 0.4 to 0.8 µM.

As for `O=C1Nc2ccccc2C(c2ccccc2)=NC1Nc1nnc(-c2cc(C(F)(F)F)cnc2N2CCOCC2)o1` (stereo not shown) [Example 146], the EC50 is over 0.8 µM.

`O=C1Nc2ccccc2C(c2ccccc2)=N[C@@H]1Nc1nnc(-c2nc3ccccc3nc2N2CCOCC2)o1` [Example 433]: the EC50 is under 0.4 µM.

As to `Cn1ncc(N2CCOCC2)c1-c1nnc(N[C@H]2N=C(c3ccccc3)c3ccccc3NC2=O)o1` [Example 178], the half-maximal effective concentration (EC50) lay in the range of 0.4 to 0.8 µM.

For `CN(CC(C)(C)O)c1cc(C(F)(F)F)cnc1-c1nnc(N[C@H]2N=C(c3ccccc3)c3ccccc3NC2=O)o1` [Example 308], the 50% effective concentration (EC50) was over 0.8 µM.

Take `N#Cc1ccc(-c2nnc(NC3N=C(c4ccccc4)c4ccccc4NC3=O)[nH]2)cc1` (stereo not shown) [Example 365]: the half-maximal effective concentration (EC50) lay in the range of 0.4 to 0.8 µM.

For the compound `O=C1Nc2ccccc2C(c2ccccc2)=N[C@@H]1Nc1nnc(-c2ncc(C(F)(F)F)cc2NC[C@H]2CCCO2)o1` [Example 420], the concentration for a half-maximal effect (EC50) is under 0.4 µM.

Take `COc1ccc(-c2nnc(NC3N=C(c4ccccc4)c4ccccc4NC3=O)o2)nc1Cl` (stereo not shown) [Example 109]: the concentration for a half-maximal effect (EC50) was over 0.8 µM.

With `O=C1Nc2ccccc2C(c2ccccc2)=N[C@@H]1Nc1nnc(-c2cnc(N3CCOCC3)nc2)o1` [Example 165], the EC50 lay within 0.4 to 0.8 µM.

`N#CC1CN(c2ncccc2-c2nnc(NC3N=C(c4ccccc4)c4ccccc4NC3=O)o2)C1` (stereo not shown) [Example 274]: the EC50 was over 0.8 µM.

Take `O=C1Nc2ccccc2C(c2ccccc2)=NC1Nc1nnc(-c2cccnc2N2CCn3ncnc3C2)o1` (stereo not shown) [Example 270]: the concentration for a half-maximal effect (EC50) was over 0.8 µM.

For `N#Cc1cnc(-c2nnc(N[C@H]3N=C(c4ccccc4)c4ccccc4NC3=O)o2)c(N2C3CCC2COC3)c1` [Example 333], the concentration for a half-maximal effect (EC50) lay in the range of 0.4 to 0.8 µM.

`O=C1Nc2ccccc2C(c2ccccc2)=NC1Nc1ncc(-c2ccccc2)s1` (stereo not shown) [Example 85]: the concentration giving a half-maximal response (EC50) was over 0.8 µM.
